Results: ChEMBL document CHEMBL4190368, “Synthesis and antimalarial evaluation of artesunate-polyamine and trioxolane-polyamine conjugates” (Eur J Med Chem, 2017)

Experiments:
[1] = test system: Plasmodium falciparum; assay: Antiplasmodial activity against chloroquine and pyrimethamine resistant Plasmodium falciparum K1 assessed as reduction in [3H]-hypoxanthine incorporation incubated for 48 hrs by liquid scintillation counting method; type: functional, organism-based
[2] = test system: Plasmodium falciparum; assay: Antiplasmodial activity against chloroquine sensitive Plasmodium falciparum NF54 assessed as reduction in [3H]-hypoxanthine incorporation incubated for 48 hrs by liquid scintillation counting method; type: functional, organism-based
[3] = test system: L6; assay: Cytotoxicity in rat L6 cells assessed as reduction in cell viability incubated for 72 hrs by alamar blue dye based assay; settings: L6, 72 h
[4] = Selectivity index, ratio of IC50 for rat L6 cells to IC50 for chloroquine and pyrimethamine resistant Plasmodium falciparum K1; type: toxicity; settings: L6 cells versus Plasmodium falciparum K1, read-out: Ratio IC50
[5] = test system: Plasmodium berghei; assay: Antiplasmodial activity against GFP-transfected Plasmodium berghei ANKA infected in NMRI mouse assessed as reduction in parasitaemia at 50 mg/kg/day, ip for 4 days measured on 24 hrs after last dose by FACS analysis; type: functional; set-up: scale not given: the % may be the effect or the level left
[6] = test system: Plasmodium berghei; assay: Antiplasmodial activity against GFP-transfected Plasmodium berghei ANKA infected in NMRI mouse assessed as mouse survival at 50 mg/kg/day, ip for 4 days measured up to 30 days; type: functional
[7] = Selectivity index, ratio of IC50 for rat L6 cells to IC50 for chloroquine sensitive Plasmodium falciparum NF54; type: toxicity; settings: L6 cells versus Plasmodium falciparum NF54, read-out: Ratio IC50

Structure (SMILES)	IC50 [1] [nM]	IC50 [2] [nM]	IC50 [3] [nM]	selectivity ratio [4]	Activity [5] [%]	Survival [6] [days]	selectivity ratio [7]
O=C(NCCCN(CCCCCCCCCCN(CCCNC(=O)C1CCC2(CC1)OOC1(O2)C2CC3CC(C2)CC1C3)C(=O)C1CCC2(CC1)OOC1(O2)C2CC3CC(C2)CC1C3)C(=O)C1CCC2(CC1)OOC1(O2)C2CC3CC(C2)CC1C3)C1CCC2(CC1)OOC1(O2)C2CC3CC(C2)CC1C3 (stereo unspecified)	30	88	> 69000	> 2300			
C[C@H]1[C@H](OC(=O)CCC(=O)NCCCN(CCCCCCCCN(CCCNC(=O)CCC(=O)O[C@@H]2O[C@@H]3O[C@@]4(C)CC[C@H]5[C@H](C)CC[C@@H]([C@H]2C)[C@@]35OO4)C(=O)CCC(=O)O[C@@H]2O[C@@H]3O[C@@]4(C)CC[C@H]5[C@H](C)CC[C@@H]([C@H]2C)[C@@]35OO4)C(=O)CCC(=O)O[C@@H]2O[C@@H]3O[C@@]4(C)CC[C@H]5[C@H](C)CC[C@@H]([C@H]2C)[C@@]35OO4)O[C@@H]2O[C@@]3(C)CC[C@H]4[C@H](C)CC[C@@H]1[C@@]24OO3	0.6	0.8	900	1500			
O=C(O)C1CCC2(CC1)OOC1(O2)C2CC3CC(C2)CC1C3 (stereo unspecified)	2.8	6.5	139000	49600			
CC(C)(C)OC(=O)N(CCCCCCCCCCN(CCCNC(=O)C1CCC2(CC1)OOC1(O2)C2CC3CC(C2)CC1C3)C(=O)OC(C)(C)C)CCCNC(=O)C1CCC2(CC1)OOC1(O2)C2CC3CC(C2)CC1C3 (stereo unspecified)	60	97	70900	1180			
C[C@H]1[C@H](OC(=O)CCC(=O)NCCCN(CCCCN(CCCNC(=O)CCC(=O)O[C@@H]2O[C@@H]3O[C@@]4(C)CC[C@H]5[C@H](C)CC[C@@H]([C@H]2C)[C@@]35OO4)C(=O)CCC(=O)O[C@@H]2O[C@@H]3O[C@@]4(C)CC[C@H]5[C@H](C)CC[C@@H]([C@H]2C)[C@@]35OO4)C(=O)CCC(=O)O[C@@H]2O[C@@H]3O[C@@]4(C)CC[C@H]5[C@H](C)CC[C@@H]([C@H]2C)[C@@]35OO4)O[C@@H]2O[C@@]3(C)CC[C@H]4[C@H](C)CC[C@@H]1[C@@]24OO3		0.3	11200		95.5	30	37300
CC(C)(C)OC(=O)N(CCCCCCCN(CCCNC(=O)C1CCC2(CC1)OOC1(O2)C2CC3CC(C2)CC1C3)C(=O)OC(C)(C)C)CCCNC(=O)C1CCC2(CC1)OOC1(O2)C2CC3CC(C2)CC1C3 (stereo unspecified)	32.2	45.4	> 100000	> 3020	94.7	7.3	
CC(C)(C)OC(=O)N(CCCCCCN(CCCNC(=O)C1CCC2(CC1)OOC1(O2)C2CC3CC(C2)CC1C3)C(=O)OC(C)(C)C)CCCNC(=O)C1CCC2(CC1)OOC1(O2)C2CC3CC(C2)CC1C3 (stereo unspecified)	5	21	59200	10800	79.4	6.7	
C[C@H]1[C@H](OC(=O)CCC(=O)NCCCN(CCCCCCCN(CCCNC(=O)CCC(=O)O[C@@H]2O[C@@H]3O[C@@]4(C)CC[C@H]5[C@H](C)CC[C@@H]([C@H]2C)[C@@]35OO4)C(=O)CCC(=O)O[C@@H]2O[C@@H]3O[C@@]4(C)CC[C@H]5[C@H](C)CC[C@@H]([C@H]2C)[C@@]35OO4)C(=O)CCC(=O)O[C@@H]2O[C@@H]3O[C@@]4(C)CC[C@H]5[C@H](C)CC[C@@H]([C@H]2C)[C@@]35OO4)O[C@@H]2O[C@@]3(C)CC[C@H]4[C@H](C)CC[C@@H]1[C@@]24OO3	0.6	0.8	1240	2070			
CC(C)(C)OC(=O)N(CCCCN(CCCNC(=O)C1CCC2(CC1)OOC1(O2)C2CC3CC(C2)CC1C3)C(=O)OC(C)(C)C)CCCNC(=O)C1CCC2(CC1)OOC1(O2)C2CC3CC(C2)CC1C3 (stereo unspecified)	9.2	5.1	65800	7160	96.4	9.3	
C[C@H]1[C@H](OC(=O)CCC(=O)O)O[C@@H]2O[C@@]3(C)CC[C@H]4[C@H](C)CC[C@@H]1[C@@]24OO3 [ARTESUNATE]	0.5	2.6	6630	13300			
C[C@H]1[C@H](OC(=O)CCC(=O)NCCCN(CCCCCCCCCCN(CCCNC(=O)CCC(=O)O[C@@H]2O[C@@H]3O[C@@]4(C)CC[C@H]5[C@H](C)CC[C@@H]([C@H]2C)[C@@]35OO4)C(=O)CCC(=O)O[C@@H]2O[C@@H]3O[C@@]4(C)CC[C@H]5[C@H](C)CC[C@@H]([C@H]2C)[C@@]35OO4)C(=O)CCC(=O)O[C@@H]2O[C@@H]3O[C@@]4(C)CC[C@H]5[C@H](C)CC[C@@H]([C@H]2C)[C@@]35OO4)O[C@@H]2O[C@@]3(C)CC[C@H]4[C@H](C)CC[C@@H]1[C@@]24OO3	1.1	0.6	490	445			
C[C@H]1[C@H](OC(=O)CCC(=O)NCCCN(CCCCCCCN(CCCNC(=O)CCC(=O)O[C@@H]2O[C@@H]3O[C@@]4(C)CC[C@H]5[C@H](C)CC[C@@H]([C@H]2C)[C@@]35OO4)C(=O)OC(C)(C)C)C(=O)OC(C)(C)C)O[C@@H]2O[C@@]3(C)CC[C@H]4[C@H](C)CC[C@@H]1[C@@]24OO3	0.8	0.6	970	1210			
O=C(NCCCN(CCCCN(CCCNC(=O)C1CCC2(CC1)OOC1(O2)C2CC3CC(C2)CC1C3)C(=O)C1CCC2(CC1)OOC1(O2)C2CC3CC(C2)CC1C3)C(=O)C1CCC2(CC1)OOC1(O2)C2CC3CC(C2)CC1C3)C1CCC2(CC1)OOC1(O2)C2CC3CC(C2)CC1C3 (stereo unspecified)	6.2	98	50400	8130			
CC(C)(C)OC(=O)N(CCCCCCCCN(CCCNC(=O)C1CCC2(CC1)OOC1(O2)C2CC3CC(C2)CC1C3)C(=O)OC(C)(C)C)CCCNC(=O)C1CCC2(CC1)OOC1(O2)C2CC3CC(C2)CC1C3 (stereo unspecified)	59	79	57600	976			
C[C@H]1[C@H](OC(=O)CCC(=O)NCCCN(CCCCCCCCN(CCCNC(=O)CCC(=O)O[C@@H]2O[C@@H]3O[C@@]4(C)CC[C@H]5[C@H](C)CC[C@@H]([C@H]2C)[C@@]35OO4)C(=O)OC(C)(C)C)C(=O)OC(C)(C)C)O[C@@H]2O[C@@]3(C)CC[C@H]4[C@H](C)CC[C@@H]1[C@@]24OO3	0.8	0.7	560	700			
O=C(NCCCN(CCCCCCCCN(CCCNC(=O)C1CCC2(CC1)OOC1(O2)C2CC3CC(C2)CC1C3)C(=O)C1CCC2(CC1)OOC1(O2)C2CC3CC(C2)CC1C3)C(=O)C1CCC2(CC1)OOC1(O2)C2CC3CC(C2)CC1C3)C1CCC2(CC1)OOC1(O2)C2CC3CC(C2)CC1C3 (stereo unspecified)	11	26	59200	5380			
O=C(NCCCN(CCCCCCCN(CCCNC(=O)C1CCC2(CC1)OOC1(O2)C2CC3CC(C2)CC1C3)C(=O)C1CCC2(CC1)OOC1(O2)C2CC3CC(C2)CC1C3)C(=O)C1CCC2(CC1)OOC1(O2)C2CC3CC(C2)CC1C3)C1CCC2(CC1)OOC1(O2)C2CC3CC(C2)CC1C3 (stereo unspecified)	76	287	> 71000	> 934			
O=C(NCCCN(CCCCCCN(CCCNC(=O)C1CCC2(CC1)OOC1(O2)C2CC3CC(C2)CC1C3)C(=O)C1CCC2(CC1)OOC1(O2)C2CC3CC(C2)CC1C3)C(=O)C1CCC2(CC1)OOC1(O2)C2CC3CC(C2)CC1C3)C1CCC2(CC1)OOC1(O2)C2CC3CC(C2)CC1C3 (stereo unspecified)	11	22	63200	5740			
C[C@H]1[C@H](OC(=O)CCC(=O)NCCCN(CCCCCCN(CCCNC(=O)CCC(=O)O[C@@H]2O[C@@H]3O[C@@]4(C)CC[C@H]5[C@H](C)CC[C@@H]([C@H]2C)[C@@]35OO4)C(=O)CCC(=O)O[C@@H]2O[C@@H]3O[C@@]4(C)CC[C@H]5[C@H](C)CC[C@@H]([C@H]2C)[C@@]35OO4)C(=O)CCC(=O)O[C@@H]2O[C@@H]3O[C@@]4(C)CC[C@H]5[C@H](C)CC[C@@H]([C@H]2C)[C@@]35OO4)O[C@@H]2O[C@@]3(C)CC[C@H]4[C@H](C)CC[C@@H]1[C@@]24OO3	0.6	0.6	880	1470			
C[C@H]1[C@H](OC(=O)CCC(=O)NCCCN(CCCCCCN(CCCNC(=O)CCC(=O)O[C@@H]2O[C@@H]3O[C@@]4(C)CC[C@H]5[C@H](C)CC[C@@H]([C@H]2C)[C@@]35OO4)C(=O)OC(C)(C)C)C(=O)OC(C)(C)C)O[C@@H]2O[C@@]3(C)CC[C@H]4[C@H](C)CC[C@@H]1[C@@]24OO3	0.9	0.8	660	733			
C[C@H]1[C@H](OC(=O)CCC(=O)NCCCN(CCCCCCCCCCN(CCCNC(=O)CCC(=O)O[C@@H]2O[C@@H]3O[C@@]4(C)CC[C@H]5[C@H](C)CC[C@@H]([C@H]2C)[C@@]35OO4)C(=O)OC(C)(C)C)C(=O)OC(C)(C)C)O[C@@H]2O[C@@]3(C)CC[C@H]4[C@H](C)CC[C@@H]1[C@@]24OO3	0.8	0.8	500	625			
